What follows are compounds tested on Rat adult neural stem cell line ANSC-7 cells (assay: Proliferation promoting activity on neural stem cells (Test Example 1)). Conditions: at 1.0 nmol/L, relative value, negative control (DMSO) = 100%, wells without cells = 0%, absorbance at 490 nm.
Format: cell-based
Experimental: Rat adult neural stem cell line ANSC-7 cells prepared by the method described in the following Reference Test Example 1 were suspended in assay medium at a density of 1.6×10^5 cells/mL; inoculated at 0.1 mL in a 96 well plate (manufactured by Costar) of which surface was coated with polyornithine and laminin; and cultured overnight at 37° C. under an atmosphere of 5% CO2. Thereafter, 50 μL of the culture supernatant was removed, and 50 μL of a test compound which was serially diluted with the assay medium to 2 times of the final concentration or DMSO (negative control) was added to each well. For the serial dilution of a test compound, non-specific adsorption was minimized by using ProteoSave 96 U plates (manufactured by SUMILON), siliconized 1.5 mL tubes (manufactured by Assist) and Pitarack siliconized tips (manufactured by Nacalai). After the culturing for 48 hours, 50 μL of the culture supernatant was replaced by 50 μL of the assay medium containing 0.1% bovine fetal serum. Furthermore, after the culturing for 48 hours, Living Cell Count Reagent SF (manufactured by Nacalai Tesque) was added at the volume of 10 μL per well to the medium. After the culturing for 3 hours at 37° C. in the incubator which was set at 5% CO2, the resulting solution was stirred for one minute and then the absorbance at 490 nm (control wavelength 655 nm) was measured by using Microplate Spectrophotometer Emax (manufactured by Molecular Devices). By regarding the measured value of well to which the cells were not inoculated as 0%, and the measured value of negative control as 100%, relative values in the test compound addition group were calculated.
After putting a 7-week-old Sprague Dawley Rat to sleep by ether anesthesia and subsequent decapitation, the skull was cut open from the parietal region to extract the brain. Under a microscope, tissues including circumventricular region were isolated from the extracted brain by using ophthalmic scissors and tweezers. The tissues including circumventricular region were cut into fragments of about 1 mm^3 using ophthalmic scissors and scalpels and then subjected to 30 minutes of digestion reaction at 37° C. in 5 mL of Hanks' buffer (HBSS buffer, manufactured by Invitrogen) containing 2.5 U/mL of papain, 250 U/mL of DNase (all manufactured by Worthington, Freehold, N.J.) and 1 U/mL of a neutral protease (Dispase, manufactured by Boehringer-Mannheim Corp.). The mixture of cells and tissues obtained by the reaction was washed three times with DMEM (manufactured by Invitrogen) containing 10% fetal bovine serum (manufactured by Hyclone) and then dissolved in the DMEM containing 10% fetal bovine serum, followed by removing the undigested materials using a nylon mesh of […].
The resulting crude cells extract was cultured overnight on a culture dish of 10 cm, in an incubator of 37° C. using DMEM/F12 medium (manufactured by Invitrogen) containing 10% fetal bovine serum. On the next day, the medium was replaced with DMEM/F12 containing 1% of N-2 additives (manufactured by Invitrogen) and 20 ng/mL of FGF 2 (manufactured by Pepro Tech) and the culturing was started. Once in 3 days, half of the medium was replaced with new DMEM/F12 containing 1% of N-2 additives and 20 ng/mL of FGF 2 and the culturing was continued.
When a small colony consisting of small cells was formed, it was treated with 1% trypsin for 30 seconds to 1 minute, and the cells detached were harvested. The harvested cells were inoculated on a multiple well culture dish (manufactured by Fisher Scientific) which had been coated at room temperature overnight using 10 μg/mL of polyornithine (manufactured by Sigma) and at 37° C. overnight using 5 μg/mL of mouse EHS tumor-derived laminin (Becton Dickinson), and the culturing was continued.
By continuing the above-mentioned culturing, small cells having small protrusion and thickness were concentrated. The cells were used as adult neural stem cells in the above-mentioned test (Test Example 1).

Structure (SMILES)	activity at 0.001 µM [%]
CC(C)CNC[C@@H](C)[C@H]1CC[C@H]2C3=C(CC[C@]12C)[C@@]1(C)CC[C@H](O)C[C@@H]1C(=O)O3 [Compound 83, (1R,3aR,5aS,7S,9aS,11aR)-7-Hydroxy-1-[(S)-1-isobutylaminopropan-2-yl]-9a,11a-dimethyl-1,2,3,3a,5a,6,7,8,9,9a,11,11a-dodecahydrobenzo[c]cyclopenta[h]chromen-5(10H)-one]	≥ 125
COCO[C@H]1CC[C@]2(C)C3=C(OC(=O)[C@H]2C1)[C@@H]1CC[C@H]([C@H](C)CNCC(C)C)[C@@]1(C)CC3 [Compound 69, (1R,3aR,5aS,7S,9aS,11aR)-1-[(S)-1-Isobutylaminopropan-2-yl]-7-methoxymethoxy-9a,11a-dimethyl-1,2,3,3a,5a,6,7,8,9,9a,11,11a-dodecahydrobenzo[c]cyclopenta[h]chromen-5(10H)-one]	≥ 125
C=CCOC[C@@H](C)[C@H]1CC[C@H]2C3=C(CC[C@]12C)[C@@]1(C)CC[C@H](OCOC)C[C@@H]1C(=O)O3 [Compound 66, (1R,3aR,5aS,7S,9aS,11aR)-1-[(S)-1-Allyloxypropan-2-yl]-7-methoxymethoxy-9a,11a-dimethyl-1,2,3,3a,5a,6,7,8,9,9a,11,11a-dodecahydrobenzo[c]cyclopenta[h]chromen-5(10H)-one]	≥ 125
CC(CO)CCC[C@H](C)[C@H]1CC[C@H]2C3=C(CC[C@]12C)[C@@]1(C)CC[C@H](O)C[C@@H]1C(=O)O3 (some centres unmarked) [Compound 79, 7-Oxa-cholest-8(9)-en-6-on-3,26-diol]	≥ 125
CC(C)CCC[C@@H](C)[C@H]1CC[C@H]2C3=C(CC[C@]12C)[C@]1(C)[C@H](C[C@@H](O)[C@H](O)[C@@H]1O)C(=O)O3 [Compound 32, (1R,2S,3R,5S)-1,2,3-trihydroxy-7-oxa-8-cholesten-6-one]	≥ 125
CC(C)CCC[C@H](C)[C@H]1CC[C@H]2C3=C(CC[C@]12C)[C@@]1(C)CCC(=NO)CC1C(=O)O3 (stereo partly drawn) [Compound 3, (S)-3-Hydroxyimino-7-oxa-8-cholesten-6-one]	≥ 125
CC(C)CCC[C@@H](C)[C@H]1CC[C@H]2C3=C(CC[C@]12C)[C@@]1(C)C[C@@H](O)C(=O)C[C@@H]1C(=O)O3 [Compound 48, (2R,5S)-2-Hydroxy-7-oxa-8-cholesten-3,6-dione]	≥ 125
CC(C)CCC[C@@H](C)[C@H]1CC[C@H]2C3=C(CC[C@]12C)[C@@]1(C)CC[C@H](OCCO)C[C@@H]1C(=O)O3 [Compound 31, (3S,5S)-3-(2-Hydroxy)ethoxy-7-oxa-8-cholesten-6-one]	≥ 125
CC(C)COC[C@@H](C)[C@H]1CC[C@H]2C3=C(CC[C@]12C)[C@@]1(C)CC[C@H](O)C[C@@H]1C(=O)O3 [Compound 81, (1R,3aR,5aS,7S,9aS,11aR)-7-Hydroxy-1-[(S)-1-isobutyloxypropan-2-yl]-9a,11a-dimethyl-1,2,3,3a,5a,6,7,8,9,9a,11,11a-dodecahydrobenzo[c]cyclopenta[h]chromen-5(10H)-one]	≥ 125
CC(C)CCC[C@@H](C)[C@H]1CC[C@H]2C3=C(CC[C@]12C)[C@@]1(C)C[C@@H](O)[C@H](O)C[C@@H]1C(=O)O3 [Compound 53, (2R,3R,5S)-2,3-Dihydroxy-7-oxa-8-cholesten-6-one]	≥ 125
CC(C)CCC[C@@H](C)[C@H]1CCC2=C3OC(=O)[C@H]4C[C@@H](O)CC[C@]4(C)[C@H]3CC[C@@]21C [Compound 99, (1R,5aS,7S,9aR,9bR,11aR)-7-Hydroxy-9a,11a-dimethyl-1-[(R)-6-methylheptan-2-yl]-2,3,3,5a,6,7,8,9,9a,9b,10,11,11a-dodecahydrobenzo[c]cyclopenta[h]chromen-5(1H)-one]	≥ 125

Same assay, conditions: at 10 nmol/L, relative value, negative control (DMSO) = 100%, wells without cells = 0%, absorbance at 490 nm

Structure (SMILES)	activity at 0.01 µM [%]
CC(CCC[C@H](C)[C@H]1CC[C@H]2C3=C(CC[C@]12C)[C@@]1(C)CC[C@H](O)C[C@@H]1C(=O)O3)C(=O)O (some centres unmarked) [Compound 80, 7-Oxa-3-hydroxy-cholest-8(9)-en-6-on-26-acid]	≥ 125
CC(C)CCC[C@@H](C)[C@H]1CC[C@@H]2[C@]1(C)CC[C@@]13O[C@@]21OC(=O)[C@H]1CC(=O)CC[C@@]13C [Compound 94, (5S,8S,9S)-7-Oxa-8,9-epoxy-3,6-cholestadione]	≥ 125
CC(CO)CCC[C@H](C)[C@H]1CCC2=C3OC(=O)[C@H]4C[C@@H](O)CC[C@]4(C)[C@H]3CC[C@@]21C (stereo in doubt) [Compound 90, 7-oxa-cholest-8(14)-en-6-on-3,26-diol]	≥ 125
CC(C)C(C)CC[C@H](C)[C@H]1CC[C@H]2C3=C(CC[C@]12C)[C@@]1(C)CC[C@H](O)C[C@@H]1C(=O)O3 (stereo in doubt) [Compound 76, 7-Oxa-ergosta-8(9)-en-6-on-3-ol]	≥ 125
COCO[C@H]1CC[C@]2(C)C3=C(OC(=O)[C@H]2C1)[C@@H]1CC[C@H]([C@H](C)CCCCCCO)[C@@]1(C)CC3 [Compound 74, (1R,3aR,5aS,7S,9aS,11aR)-1-[(R)-8-Hydroxyoctan-2-yl]-7-methoxymethoxy-9a,11a-dimethyl-1,2,3,3a,5a,6,7,8,9,9a,11,11a-dodecahydrobenzo[c]cyclopenta[h]chromen-5(10H)-one]	≥ 125
CC(C)CCC[C@@H](C)[C@H]1CC[C@H]2C3=C(CC[C@]12C)[C@@]1(C)CCNC(=O)C[C@@H]1C(=O)O3 [Compound 34, (1R,3aR,5aS,10aS,12aR)-10a,12a-Dimethyl-1-[(R)-6-methylheptan-2-yl]-1,2,3,3a,5a,6,9,10,10a,11,12,12a-dodecahydro-8-azacyclohepta[c]cyclopenta[h]chromen-5,7-dione]	≥ 125

Same assay, conditions: at 100 nmol/L, relative value, negative control (DMSO) = 100%, wells without cells = 0%, absorbance at 490 nm

Structure (SMILES)	activity at 0.1 µM [%]
CC(C)CCC[C@@H](C)[C@H]1CC[C@H]2C3=C(CC[C@]12C)[C@]1(C)[C@H](CC=C[C@@H]1O)C(=O)O3 [Compound 21, (1S,5S)-1-Hydroxy-7-oxa-2,8-cholestadien-6-one]	≥ 125
C=CC[C@]12C[C@@H](O)CC[C@]1(C)C1=C(OC2=O)[C@@H]2CC[C@H]([C@H](C)CCCC(C)C)[C@@]2(C)CC1 [Compound 30, (3S,5S)-3-hydroxy-5-allyl-7-oxa-8-cholesten-6-one]	≥ 125
CC(C)C(=O)CC[C@H](C)[C@H]1CC[C@H]2C3=C(CC[C@]12C)[C@@]1(C)CC[C@H](O)C[C@@H]1C(=O)O3 (stereo in doubt) [Compound 78, 7-Oxa-cholest-8(9)-en-6,24-dion-3-ol]	≥ 125
COCO[C@H]1CC[C@]2(C)C3=C(OC(=O)[C@H]2C1)[C@@H]1CC[C@H]([C@H](C)CN2CCOCC2)[C@@]1(C)CC3 [Compound 72, (1R,3aR,5aS,7S,9aS,11aR)-7-Methoxymethoxy-9a,11a-dimethyl-1[(S)-1-morpholinopropan-2-yl]-1,2,3,3a,5a,6,7,8,9,9a,11,11a-dodecahydrobenzo[c]cyclopenta[h]chromen-5(10H)-one]	≥ 125
CC(C)CCC[C@@H](C)[C@H]1CC[C@H]2C3=C(CC[C@]12C)[C@@]1(C)CC[C@H](OCc2ccccc2)C[C@@H]1C(=O)O3 [Compound 47, (3S,5S)-3-Benzyloxy-7-oxa-8-cholesten-6-one]	≥ 125
CC(C)CCC[C@@H](C)[C@H]1CC[C@H]2[C@H]3OC(=O)[C@H]4CC(=O)CC[C@]4(C)[C@H]3CC[C@]12C [Compound 93, (1R,3aR,3bR,5aS,9aR,9bR,11aR)-9a,11a-Dimethyl-1-[(R)-6-methylheptan-2-yl]dodecahydrobenzo[c]cyclopenta[h]chromen-5,7(3bH,8H)-dione]	≥ 125

From patent US8952003B2, “Sterol derivative” (Kyowa Hakko Kirin Co., Ltd, priority 2009, dated 2015)
